Data taken from US10011598B2, “Small molecules targeting repeat r(CGG) sequences” (THE SCRIPPS RESEARCH INSTITUTE, priority 2012, dated 2018).
“Also recorded” adds a separate entry of the source. Where two headings read alike, the source gives them in different places.

Assays:
r(CGG)12 = test: Competition dialysis; format: binding; conditions: 0.7 μM ligand, 2 μM RNA
Description: (§1) Competition dialysis was completed as previously described (31). Briefly, 2 μM RNA or protein was transferred into Slide-a-Lyzer MINI dialysis units with a molecular weight cut-off of 2,000 (Thermo Scientific), and the units were placed into a solution of 0.7 μM ligand. Two blank units containing only buffer were used to monitor equilibration by checking the absorbance at the peak wavelength. After the blank units reached equilibrium, sodium dodecyl sulfate (SDS) was added to a final concentration of 1%, and the absorbance was measured. This absorbance was used to determine total ligand concentration (Ct). The concentration of the dialysate (free ligand concentration. Cf) was determined analogously. The bound ligand concentration (Cb) was then determined using equation 2: Cb=Ct−Cf (eq. 2) where Cb, Ct, and Cf are concentrations of bound, total, and free ligand, respectively. RNA-Binding Assays Via Dye Displacement.

DGCR8Δ = test: Competition dialysis; format: binding; conditions: 0.7 μM ligand, 2 μM protein
Description: as §1

fully paired RNAs = test: Competition dialysis; format: binding; conditions: 0.7 μM ligand, 2 μM RNA
Description: as §1

[1] = molecular target: RNA containing one 5′CGG/3′GGC motif; test: RNA-binding assay via Hoechst 33258 dye displacement; conditions: RNA with one 5′CGG/3′GGC motif; Table 1
Description: Dissociation constants were determined using an in-solution, fluorescence-based assay (37-45). RNA was annealed in DNA buffer (8 mM Na2HPO4, pH7.0, 185 mM NaCl, 0.1 mM EDTA, 40 μg/mL BSA) at 60° C. for 5 min and allowed to slowly cool to room temperature. The annealed RNA was then titrated into DNA buffer containing 1000 nM Hoechst 33258. Fluorescence signal was recorded using a Bio-Tek FLX-800 plate reader, which was equipped with excitation filter at 360/40 nm and emission filter at 460/40 nm. The change in fluorescence intensity as a function of RNA concentration was fit to the following equation (eq. 3): (37, 46) I=I0+0.5Δϵ{([Ht0]+[RNA]0+Kt)−(([Ht]0+[RNA]0+Kt)^2−4[Ht]0[RNA]0)^0.5} (eq. 3) where I is the observed fluorescence intensity, I0 is the fluorescence intensity in the absence of RNA, Δϵ is the difference between the fluorescence intensity in the absence of RNA and in the presence of infinite RNA concentration and is in units of M^−1. […]
Ligands 1a-1d were then added to compete for binding to the RNA (1 μM) in presence of Hoechst 33258 (1 μM). Reduction in fluorescence of Hoechst 33258 was measured using a Bio-Tek FLX-800 plate reader as a function of ligand concentration (1a-1d) and was fit to the following equation (eq. 4): (41) […]

r(CGG)12-DGCR8Δ complex = test: TR-FRET protein displacement assay; format: biochemical; conditions: for Percentage displacement at 25 μM: 25 μM compound, DGCR8Δ displaced from r(CGG)12; for inhibition of the r(CGG)12-DGCR8Δ interaction, in words: comparison within the tested compounds
[2] = test system: Bcl-x exon 2 alternative splicing; test: Bcl-x mini-gene splicing in COS7 cells (FXTAS model), RT-PCR; format: cell-based; conditions: for Bcl-x splicing: COS7 cells expressing r(CGG)60
Description: (§2) In order to determine if a improves FXTAS-associated splicing defects in vivo, a cell culture model system was used. Briefly. COS7 cells were grown as monolayers in 24- or 96-well plates in growth medium (1×DMEM, 10% FBS, and 1× GlutaMax (Invitrogen)). After the cells reached 90-95% confluency, they were transfected using Lipofectamine 2000 reagent (Invitrogen) or PugenHD (Roche) per the manufacturer's standard protocol. Equal amounts of a plasmid expressing a 60 CGG repeats and a mini-gene of interest (SMN2 or Bcl-x) were used. Approximately 5 h post-transfection, the transfection cocktail was removed and replaced with growth medium containing 1a. After 16-24 h, the cells were lysed in the plate, and total RNA was harvested with a Qiagen RNAEasy kit or a GenElute kit (Sigma). An on-column DNA digestion was completed per the manufacturer's recommended protocol.
(§3) A sample of RNA was subjected to reverse transcription-polymerase chain reaction (RT-PCR) using 5 units of AMV Reverse Transcriptase from Life Sciences or Superscript II (Invitrogen). Approximately 300 ng were reverse transcribed, and 150 ng were subjected to PCR. RT-PCR products were observed after 25-30 cycles of: 95° C. for 1 min: 55° C. for 1 min; 72° C. for 2 min and a final extension at 72° C. for 10 min. The products were separated by polyacrylamide or agarose gel electrophoresis, stained, and imaged using a Typhoon phosphorimager. The splicing isoforms were quantified using QuantityOne software (BioRad). Table S-2 lists the RT-PCR primers used for each mini-gene construct.

r(CGG)^exp nuclear foci = test: Nuclear foci by fluorescence in situ hybridization (FISH) in COS7 cells; format: cell-based; conditions: COS7 cells transfected with r(CGG)60 and GFP
Description: FISH experiments were completed as previously described. (8) Briefly, COS7 cells were plated onto glass coverslips and co-transfected with plasmids encoding for r(CGG)60 and GFP. The cells were fixed in 4% paraformaldehyde in PBS (pH 7.4) for 15 min and washed three times with PBS. Then, they were permeabilized with 0.5% Triton X-100 in PBS. Prior to addition of the FISH probe, the cells were pre-hybridized in a 2×SSC buffer containing 40% formamide and 10 mg/mL BSA for 30 min. The coverslips were hybridized for 2 h in 2×SSC buffer supplemented with 40% formamide, 2 mM vanadyl ribonucleoside, 60 μg/mL tRNA, 30 μg/mL BSA, and 0.75 μg (CCG)8-Cy3 DNA oligonucleotide probe. The cells were washed twice in 2×SSC containing 50% formamide and then twice in 2×SSC. Following FISH the coverslips were incubated for 10 min in 2×SSC containing 1 μg/mL DAPI and rinsed twice in 2×SSC. The coverslips were then mounted in Pro-Long media and examined using either a simple fluorescence microscope (Leica) or a Leica DM4000 B confocal microscope.

[3] = test system: PLEKHH2 alternative splicing; test: PLEKHH2 mini-gene control splicing in COS7 cells; format: cell-based; conditions: for effect on PLEKHH2 splicing: no concentration stated, not regulated by Sam68
Text: (§4) Control experiments were also completed to determine the specificity of 1a; that is if it affects the splicing of RNAs not controlled by Sam68. In these experiments, a PLEKHH2 (15) or cardiac troponin T (cTNT) (32) mini-gene was used, as their alternative splicing is not regulated by Sam68. […] Thus, the effect of 1a on pre-mRNA splicing appears to be specific to the splicing of pre-mRNAs regulated by Sam68.

[4] = test system: cTNT alternative splicing; test: cTNT mini-gene control splicing in COS7 cells; format: cell-based; conditions: for effect on cTNT splicing: no concentration stated, not regulated by Sam68
Text: as §4

[5] = test system: SMN2 exon 7 alternative splicing; test: SMN2 mini-gene splicing in COS7 cells (FXTAS model), RT-PCR; format: cell-based; conditions: for SMN2 pre-mRNA splicing defects, in words: figure legends
Text: Encouraged by our TR-FRET assay results, we tested the bioactivity of the optimal dimeric small molecule, 2E-5NMe, by using a FXTAS cellular model. In the FXTAS cell model, r(CGG)^exp binds and sequesters Sam68, a pre-mRNA splicing regulator. Sequestration of Sam68 causes its inactivation and dysregulation of alternative pre-mRNA splicing. In particular, the alternative splicing of exon 7 of the survival motor neuron-2 pre-mRNA (SMN2; involved in maintenance of motor neurons and mRNA processing) is dysregulated. Exon 7 is included too frequently when r(CGG)^exp is expressed, ˜70% of time as compared to normal cells in which exon 7 has an inclusion rate of only ˜40% (FIG. 14). Experiments were completed as previously described. Briefly. COS7 cells were co-transfected with plasmids expressing an SMN2 alternative splicing reporter and r(CGG)60. The transfection cocktail was removed, and the cells were incubated with fresh medium containing serially diluted concentrations of compound for 24 h. Total RNA was harvested, and splicing patterns were analyzed via RT-PCR. Remarkably, at […] concentration, 2E-5NMe restores alternative pre-mRNA splicing patterns back to the wild type. The monomer 1a required 10 times higher concentration for the same effect.
as §2, §3

[6] = 62 times of competitor tRNA, Table 2, read-out: IC50 at the presence of 62 times of competitor, tRNA
[7] = disruption of r(CGG)12-DGCR8Δ complex, Table 1, read-out: IC50
[8] = inhibition of r(CGG)12-DGCR8Δ complex, Table 2, read-out: IC50
[9] = read-out: IC50 for disruption of r(CGG)12-DGCR8Δ complex / inhibition of protein binding
[10] = cells that do not express r(CGG)60
[11] = 500 μM, splicing not regulated by Sam68

Row | SMILES | Kd [1] [µM] | r(CGG)12-DGCR8Δ complex formation, % (r(CGG)12-DGCR8Δ complex; 1 μM compound, Table 2) [%] | r(CGG)12-DGCR8Δ complex formation, % (r(CGG)12-DGCR8Δ complex; 10 μM compound, Table 2) [%] | Percentage displacement at 25 μM (r(CGG)12-DGCR8Δ complex; Table 1) [%] | IC50 (r(CGG)12-DGCR8Δ complex; [6]) [µM] | IC50 (r(CGG)12-DGCR8Δ complex; [7]) [µM] | IC50 (r(CGG)12-DGCR8Δ complex; [8]) [µM] | IC50 (r(CGG)12-DGCR8Δ complex; [9]) [µM] | effect on PLEKHH2 splicing [3] | effect on cTNT splicing [4] | SMN2 pre-mRNA splicing defects, in words ([5]; COS7 cells expressing r(CGG)60) | inhibition of the r(CGG)12-DGCR8Δ interaction, in words (r(CGG)12-DGCR8Δ complex) | also measured
1 | Cc1c2cc[n+](CCN3CCCCC3)cc2c(C)c2c1[nH]c1ccc(O)cc12 [1a, 9-hydroxy-5,11-dimethyl-2-(2-(piperidin-1-yl)ethyl)-6H-pyrido[4,3-b]carbazol-2-ium] | 0.076 ± 0.004 | 66.9 ± 0.7 | 20.4 ± 0.8 | 85 ± 1 | 20.1 | 13 ± 0.4 | 3.84 ± 0.3 | 12 | not to effect splicing; also recorded: non-effect | not to effect splicing; also recorded: non-effect | improves SMN2 pre-mRNA splicing defects | – | binding to r(CGG)12 (r(CGG)12): binds tightly; binding to DGCR8Δ (DGCR8Δ): very little binding; amount of ligand partitioned into fully paired RNAs relative to r(CGG)12 (fully paired RNAs): less than half; Bcl-x splicing ([2]; 100 μM): Statistically significant improvement; Bcl-x splicing ([2]; 500 μM): restoration of wild type splicing patterns; Bcl-x pre-mRNA splicing defects, in words ([2]; COS7 cells expressing 60 r(CGG) repeats): improves Bcl-x pre-mRNA splicing defects; effect on Bcl-x splicing [2, 10]: No statistically significant effect; size and number of r(CGG)^exp nuclear foci / aggregates (r(CGG)^exp nuclear foci): reduces the size and the number of foci; also recorded: reduced formation of r(CGG)^exp aggregation; also recorded: decreases r(CGG)^exp-protein aggregates; effect on PLEKHH2 alternative splicing [3, 11]: did not affect; effect on cTNT alternative splicing [4, 11]: did not affect; SMN2 pre-mRNA splicing level ([5]; 100 μM, COS7 cells expressing r(CGG)60): approximately 70 % of wild type; SMN2 pre-mRNA splicing ([5]; 500 μM, COS7 cells expressing r(CGG)60): restores pre-mRNA splicing to levels wild type; concentration at which improvement of SMN2 splicing defects can be observed ([5]; COS7 cells expressing r(CGG)60): 20 µM; concentration required for the same effect relative to 2E-5NMe ([5]; SMN2 splicing restored to wild type): 10 times; effect on SMN2 splicing [5, 10]: No statistically significant effect
2 | Cc1c2cc[n+](C)cc2c(C)c2c1[nH]c1ccc(O)cc12 [1d, elliptinium] | 0.05 ± 0.018 | – | – | 87 ± 5 | – | 7 ± 0.2 | – | – | – | – | – | – | –
3 | Cc1c2ccncc2c(C)c2c1[nH]c1ccc(O)cc12 [1e, 9-hydroxyellipticine] | – | – | – | 46 ± 5 | – | ~25 | – | ~25 | – | – | – | markedly decreased | –
4 | Cc1c2cc[n+](Cc3cn(CCCNCC(=O)N(C)C(C)C(=O)N(C)C(C)C(=O)N(C)C(C)C(=O)N(C)C(C)C(=O)N(C)C(C)C(=O)N(CCCn4cc(C[n+]5ccc6c(C)c7[nH]c8ccc(O)cc8c7c(C)c6c5)nn4)CC(N)=O)nn3)cc2c(C)c2c1[nH]c1ccc(O)cc12 (stereo not shown) [2E-5NMe] | – | 39.6 ± 0.6 | 5.0 ± 2.6 | – | 3.52 | – | 0.47 ± 0.08 | – | does not affect | does not affect | reduction of pro-mRNA splicing defects | the most potent compound | potency relative to the monomer 1a (r(CGG)12-DGCR8Δ complex; IC50 ratio): ~8 fold; r(CGG)12-DGCR8D complex inhibited (r(CGG)12-DGCR8Δ complex; at 1 mM (so in the source)): 60%; r(CGG)12-DGCR8D complex inhibited (r(CGG)12-DGCR8Δ complex; at 10 mM (so in the source)): 95%; concentration that restores alternative pre-mRNA splicing patterns back to the wild type ([5]; SMN2, COS7 cells with r(CGG)60, 24 h): 50 mM; effect on alternative splicing in healthy cells ([5]; cells without r(CGG)60): does not affect
